Experimental data taken from patent publication US20240174690A1, “ANNULATED 2-AMINO-3-CYANO THIOPHENES AND DERIVATIVES FOR THE TREATMENT OF CANCER” (BOEHRINGER INGELHEIM INTERNATIONAL GMBH, priority 2021, published 2024).
Like-named read-outs stand apart in the source and are kept apart here.

Columns and labels:
KRAS (G12C)::SOS1 = KRAS (G12C)::SOS1 (Homo sapiens (Human), UniProt P01116, C118S/C51S/C80L/G12C); assay: KRAS::SOS1 AlphaScreen binding assay, KRAS G12C
Summary of the method: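 Compounds (up to 100 μM, eleven fivefold dilutions in duplicate) were incubated 30 min with KRAS 1-169 (10 nM, or 7.5 nM for G12C), GST-SOS1 564-1049 (5 nM for G12D/G12C, 10 nM for others) and 10 μM GDP in PBS buffer with BSA and Tween. Donor/acceptor beads were then added for 60 min at room temperature, and IC50 came from a 4-parameter fit of the AlphaScreen signal.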

NCI-H358 cells = assay: NCI-H358 CTG proliferation assay (120 h) (NSCLC, G12C); type: cell-based, human
Summary of the method: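 NCI-H358 cells (KRAS G12C) were seeded at 2000/well (assay 1) or 200/well (assay 2) in RPMI-1640 + 10% FCS and dosed with a logarithmic series, DMSO-normalized. After 120 h, viability was read by CellTiter-Glo luminescence as percent of DMSO control, with a T0 read at dosing. IC50 came from a four-parameter fit.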

SAS cells = assay: SAS CTG proliferation assay (120 h) (HNSCC, wt amplified); type: cell-based
Summary of the method: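 SAS cells plated at 300 per well in DMEM:F12 with 10% FCS and left overnight, then given compounds acoustically. After 120 h exposure, viability read by CellTiter-Glo as percent of DMSO control. IC50 from four-parameter non-linear regression.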

[1] = Homo sapiens, assay 2, CTG, read-out: H358 (assay 2) IC50

Chain of KRAS (G12C)::SOS1 (P01116 other isoform, or with tags, fused parts or gaps G12C/C51S/C80L/C118S): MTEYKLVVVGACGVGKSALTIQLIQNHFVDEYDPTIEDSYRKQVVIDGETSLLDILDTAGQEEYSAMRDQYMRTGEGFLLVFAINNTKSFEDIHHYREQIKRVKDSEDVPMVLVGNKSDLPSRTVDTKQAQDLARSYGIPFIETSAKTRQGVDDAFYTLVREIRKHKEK

| Compound | IC50 (KRAS (G12C)::SOS1) [nM] | IC50 (NCI-H358 cells; [1]) [nM] | IC50 (SAS cells) [nM] | IC50 (NCI-H358 cells; Homo sapiens, assay 1, CTG, read-out: H358 (assay 1) IC50) [nM] | IC50 (NCI-H358 cells; assay 2, CTG, read-out: H358 (assay 2) IC50) [nM] |
| --- | --- | --- | --- | --- | --- |
| COc1c(O[C@@H](C)[C@@H]2CCCN2C)nc(-c2noc3c2CCC[C@@]32CCCc3sc(N)c(C#N)c32)nc1-n1ccc(C(N)=O)n1 [II-159] | 2 | 31 | 70 | – | – |
| CO[C@@H]1C[C@@H]([C@H](C)Oc2cc(N3CCNC4(CC4)C3)nc(-c3noc4c3CCC[C@@]43CCCc4sc(N)c(C#N)c43)n2)N(C)C1 [II-187] | 2 | 135 | 1150 | – | – |
| C[C@H](Oc1cc(-n2cc3c(n2)CNC3)nc(-c2noc3c2CCC[C@@]32CCCc3sc(N)c(C#N)c32)n1)[C@@H]1C[C@@H](F)CN1C [II-154] | 2 | 374 | 747 | – | – |
| CC(=O)N1CCN(c2cc(O[C@@H](C)[C@@H]3CCCN3C)nc(-c3noc4c3CCC[C@@]43CCCc4sc(N)c(C#N)c43)n2)CC12CC2 [II-178] | 2 | 129 | 2570 | – | – |
| C[C@H](Oc1cc(N2Cc3cnn(C)c3C2)nc(-c2onc3c2CCC[C@@]32CCCc3sc(N)c(C#N)c32)n1)[C@@H]1CCCN1C [I-19] | 2 | 2160 | 217 | – | – |
| C[C@H](Oc1cc(N2C[C@@H]3[C@@H](N)[C@@H]3C2)nc(-c2noc3c2CCC[C@@]32CCCc3sc(N)c(C#N)c32)n1)[C@@H]1CCCN1C [II-167] | 5 | – | 1390 | – | – |
| C[C@H](Oc1cc(N2CC3COCC(C2)N3)nc(-c2noc3c2CCC[C@@]32CCCc3sc(N)c(C#N)c32)n1)[C@@H]1CCCN1C [II-160] | 7 | – | 821 | – | – |
| CC(C)N1CCCN(c2cc(-c3ccn(C)n3)nc(-c3noc4c3CCC[C@@]43CCCc4sc(N)c(C#N)c43)n2)[C@@H](C)C1 [II-170] | 3 | 623 | 1050 | – | – |
| C[C@H]1CNCCCN1c1cc(-c2ccn(C)n2)nc(-c2noc3c2CCC[C@@]32CCCc3sc(N)c(C#N)c32)n1 [II-140] | 5 | 702 | 128 | – | – |
| C[C@H](Oc1cc(-c2cccc(C(N)=O)c2)nc(-c2noc3c2CCC[C@@]32CCCc3sc(N)c(C#N)c32)n1)[C@@H]1CCCN1C [II-133] | 2 | 9 | 202 | 74 | – |
| C[C@H](Oc1cc(-n2ccc(C(=O)N[C@H]3CCOC3)n2)nc(-c2noc3c2CCC[C@@]32CCCc3sc(N)c(C#N)c32)n1)[C@@H]1CCCN1C [II-193] | 1 | – | 10 | – | 1 |
| C[C@H](Oc1cc(-n2ccc(C(=O)N[C@@H]3CCOC3)n2)nc(-c2noc3c2CCC[C@@]32CCCc3sc(N)c(C#N)c32)n1)[C@@H]1CCCN1C [II-192] | 1 | 2 | 25 | – | – |
| CO[C@H]1CCN(C)[C@@H]1[C@H](C)Oc1cc(N2CCNC3(CC3)C2)nc(-c2noc3c2CCC[C@@]32CCCc3sc(N)c(C#N)c32)n1 [II-184] | 2 | 95 | 882 | – | – |
| C[C@H](Oc1cc(-n2ccc(C(=O)N(C)C3COC3)n2)nc(-c2noc3c2CCC[C@@]32CCCc3sc(N)c(C#N)c32)n1)[C@@H]1CCCN1C [II-194] | 1 | 3 | 37 | – | – |
| C[C@H](Oc1cc(-c2ccn(C[C@H]3CCOC3)n2)nc(-c2noc3c2CCC[C@@]32CCCc3sc(N)c(C#N)c32)n1)[C@@H]1CCCN1C [II-129] | 2 | 295 | 18 | – | – |
| CO[C@H]1CCN(C)[C@@H]1[C@H](C)Oc1cc(-n2ccc(C(=O)N[C@H]3CCOC3)n2)nc(-c2noc3c2CCC[C@@]32CCCc3sc(N)c(C#N)c32)n1 [II-198] | 1 | 1 | 8 | – | – |
| C[C@H](Oc1nc(-c2noc3c2CCC[C@@]32CCCc3sc(N)c(C#N)c32)nc(N2CCNC3(CC3)C2)c1F)[C@@H]1C[C@@H](F)CN1C [II-155] | 2 | 77 | 471 | – | – |
| C[C@H](Oc1cc(-n2ccc(-c3cn([C@@H]4CCOC4)nn3)n2)nc(-c2noc3c2CCC[C@@]32CCCc3sc(N)c(C#N)c32)n1)[C@@H]1CCCN1C [II-211] | 2 | 1 | 17 | – | – |
| C[C@H](Oc1cc(-n2cnc(C(=O)N(C)C)c2)nc(-c2noc3c2CCC[C@@]32CCCc3sc(N)c(C#N)c32)n1)[C@@H]1CCCN1C [II-126] | 2 | 1680 | 189 | – | – |
| C[C@H](Oc1cc(N2CCNC3(COC3)C2)nc(-c2noc3c2CCC[C@@]32CCCc3sc(N)c(C#N)c32)n1)[C@@H]1C[C@@H](F)CN1C [II-150] | 2 | 115 | 91 | – | – |
| C[C@H](Oc1cc(-c2cn(C)nn2)nc(-c2onc3c2CCC[C@@]32CCCc3sc(N)c(C#N)c32)n1)[C@@H]1CCCN1C [I-16] | 2 | 204 | 77 | – | – |
| C[C@H](Oc1cc(-c2ccn(C)n2)nc(-c2noc3c2CCC[C@@]32CCCc3sc(N)c(C#N)c32)n1)[C@@H]1C[C@H](F)CN1C [II-144] | 3 | – | 302 | – | – |

| Compound | IC50 (KRAS (G12C)::SOS1) [nM] | IC50 (NCI-H358 cells; [1]) [nM] | IC50 (SAS cells) [nM] | IC50 (NCI-H358 cells; Homo sapiens, assay 1, CTG, read-out: H358 (assay 1) IC50) [nM] | IC50 (NCI-H358 cells; assay 2, CTG, read-out: H358 (assay 2) IC50) [nM] |
| --- | --- | --- | --- | --- | --- |
| C[C@H](Oc1cc(-n2cc3c(n2)CNC3)nc(-c2noc3c2CCC[C@@]32CCCc3sc(N)c(C#N)c32)n1)[C@@H]1CCCN1C [II-168] | 2 | – | 441 | – | – |
| C[C@H](Oc1cc(-n2nccc2-c2ccncc2)nc(-c2noc3c2CCC[C@@]32CCCc3sc(N)c(C#N)c32)n1)[C@@H]1CCCN1C [II-131] | – | 277 | 623 | – | – |
| C[C@H](Oc1nc(-c2noc3c2CCC[C@@]32CCCc3sc(N)c(C#N)c32)nc(N2C[C@H](C)NC3(CC3)C2)c1F)[C@@H]1C[C@@H](F)CN1C [II-157] | 2 | 151 | 1190 | – | – |
| C[C@H](Oc1cc(-n2ccc(-c3cn(CC4(C)COC4)nn3)n2)nc(-c2noc3c2CCC[C@@]32CCCc3sc(N)c(C#N)c32)n1)[C@@H]1CCCN1C [II-213] | 2 | 1 | 13 | – | – |
| C[C@H](Oc1cc(-n2cc(-c3cncs3)nn2)nc(-c2noc3c2CCC[C@@]32CCCc3sc(N)c(C#N)c32)n1)[C@@H]1CCCN1C [II-125] | 2 | 255 | 182 | – | – |
| CNC1CCN(c2cc(O[C@@H](C)[C@@H]3CCCN3C)nc(-c3noc4c3CCC[C@@]43CCCc4sc(N)c(C#N)c43)n2)CC1 [II-214] | 9 | – | – | – | – |
| C[C@H](Oc1cc(N2C[C@H](C)N(C)[C@@H](C)C2)nc(-c2noc3c2CCC[C@@]32CCCc3sc(N)c(C#N)c32)n1)[C@@H]1CCCN1C [II-173] | 5 | – | 751 | – | – |
| C[C@H](O)Cn1ncc(-c2cc(O[C@@H](C)[C@@H]3CCCN3C)nc(-c3noc4c3CCC[C@@]43CCCc4sc(N)c(C#N)c43)n2)n1 [II-134] | 2 | – | 35 | – | – |
| CC(C)[C@@H]1CN(c2cc(O[C@@H](C)[C@@H]3CCCN3C)nc(-c3noc4c3CCC[C@@]43CCCc4sc(N)c(C#N)c43)n2)CCN1 [II-166] | 8 | – | 1180 | – | – |
| C[C@H](Oc1cc([C@H]2CCNC2)nc(-c2noc3c2CCC[C@@]32CCCc3sc(N)c(C#N)c32)n1)[C@@H]1CCCN1C [II-163] | 2 | – | 274 | – | – |
| C[C@H]1CNCCCN1c1nc(-c2onc3c2CCC[C@@]32CCCc3sc(N)c(C#N)c32)cc(C(F)(F)F)n1 [I-15] | 299 | – | – | – | – |
| C[C@@H]1CN(c2cc(O[C@@H](C)[C@@H]3CCCN3C)nc(-c3noc4c3CCC[C@@]43CCCc4sc(N)c(C#N)c43)n2)CCN1 [II-161] | 5 | – | 1580 | – | – |
| C[C@H](Oc1cc(N2CCN(C)C3(CC3)C2)nc(-c2noc3c2CCC[C@@]32CCCc3sc(N)c(C#N)c32)n1)[C@@H]1C[C@@H](F)CN1C [II-149] | 8 | – | 849 | – | – |
| C[C@H](Oc1cc(N2CCN[C@@H](C)C2)nc(-c2noc3c2CCC[C@@]32CCCc3sc(N)c(C#N)c32)n1)[C@@H]1CCCN1C [II-162] | 3 | – | 2120 | – | – |
| C[C@H](Oc1cc(N2CCN(C)C3(CCOC3)C2)nc(-c2noc3c2CCC[C@@]32CCCc3sc(N)c(C#N)c32)n1)[C@@H]1C[C@@H](F)CN1C (some centres unmarked) [II-151] | 8 | – | 161 | – | – |
| C[C@H](Oc1cc(N2CCN(C)C3(CC3)C2)nc(-c2noc3c2CCC[C@@]32CCCc3sc(N)c(C#N)c32)n1)[C@@H]1CCCN1C [II-171] | 5 | – | 1100 | – | – |
| CO[C@@H]1C[C@@H]([C@H](C)Oc2cc(-c3cnn(C)n3)nc(-c3onc4c3CCC[C@@]43CCCc4sc(N)c(C#N)c43)n2)N(C)C1 [I-17] | 4 | – | 241 | – | – |
| C[C@H](Oc1cc(-n2cc3c(n2)CCN(C)C3)nc(-c2noc3c2CCC[C@@]32CCCc3sc(N)c(C#N)c32)n1)[C@@H]1CCCN1C [II-141] | 2 | – | 873 | – | – |
| C[C@H](Oc1cc(-n2cncc3ccnc2-3)nc(-c2onc3c2CCC[C@@]32CCCc3sc(N)c(C#N)c32)n1)[C@@H]1CCCN1C [I-14] | 2 | – | 25 | – | – |
| CO[C@H]1CCN(C)[C@@H]1[C@H](C)Oc1cc(-n2ccc(CC(=O)NC(C)C)n2)nc(-c2noc3c2CCC[C@@]32CCCc3sc(N)c(C#N)c32)n1 [II-183] | 2 | – | 6 | – | – |
| C[C@H](Oc1cc(N2CCN(C)C3(COC3)C2)nc(-c2noc3c2CCC[C@@]32CCCc3sc(N)c(C#N)c32)n1)[C@@H]1C[C@@H](F)CN1C [II-148] | 2 | – | 421 | – | – |
